Measurements published in ChEMBL document CHEMBL1201862, “PubChem BioAssay data set” (2004).
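48-hour exposure; five concentrations; linearly interpolated endpoints. The concentration for 50% growth inhibition is given as GI50.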 Active and inactive are the calls of the source. Cut-off read from the data, not from the text of the source: active = GI50 up to about 1.1 µM and inactive = higher.

How the values were obtained:
Assay in all cases: NCI-60 cell line screen, 48 h
PC-3 = test system: PC-3
UACC-62 = test system: UACC-62
A549 = test system: A549
MOLT-4 = test system: MOLT-4
NCI-H460 = test system: NCI-H460
UACC-257 = test system: UACC-257
SK-MEL-5 = test system: SK-MEL-5
OVCAR-8 = test system: OVCAR-8
NCI-H226 = test system: NCI-H226
ACHN = test system: ACHN
NCI-H23 = test system: NCI-H23
SK-MEL-2 = test system: SK-MEL-2
OVCAR-4 = test system: OVCAR-4
UO-31 = test system: UO-31
SN12C = test system: SN12C
OVCAR-5 = test system: OVCAR-5
BT-549 = test system: BT-549
SF-295 = test system: SF-295
SK-OV-3 = test system: SK-OV-3
SNB-75 = test system: SNB-75

| SMILES | GI50 (PC-3) | GI50 (UACC-62) | GI50 (A549) | GI50 (MOLT-4) | GI50 (NCI-H460) | GI50 (UACC-257) | GI50 (SK-MEL-5) | GI50 (OVCAR-8) | GI50 (NCI-H226) | GI50 (ACHN) | GI50 (NCI-H23) | GI50 (SK-MEL-2) | GI50 (OVCAR-4) | GI50 (UO-31) | GI50 (SN12C) | GI50 (OVCAR-5) | GI50 (BT-549) | GI50 (SF-295) | GI50 (SK-OV-3) | GI50 (SNB-75) |
| --- | --- | --- | --- | --- | --- | --- | --- | --- | --- | --- | --- | --- | --- | --- | --- | --- | --- | --- | --- | --- |
| N=C(Cc1ccccc1)NCC(=O)O | > 100 µM (inactive) | > 100 µM (inactive) | > 100 µM (inactive) | > 100 µM (inactive) | > 100 µM (inactive) | > 100 µM (inactive) | > 100 µM (inactive) | > 100 µM (inactive) | > 100 µM (inactive) | > 100 µM (inactive) | > 100 µM (inactive) | > 100 µM (inactive) | > 100 µM (inactive) | > 100 µM (inactive) | > 100 µM (inactive) | > 100 µM (inactive) | > 100 µM (inactive) | > 100 µM (inactive) | > 100 µM (inactive) | > 100 µM (inactive) |
| c1cncc(CNc2ncn[nH]2)c1 | > 100 µM (inactive) | > 100 µM (inactive) | > 100 µM (inactive) | > 100 µM (inactive) | > 100 µM (inactive) | > 100 µM (inactive) | > 100 µM (inactive) | > 100 µM (inactive) | > 100 µM (inactive) | > 100 µM (inactive) | > 100 µM (inactive) | > 100 µM (inactive) | > 100 µM (inactive) | > 100 µM (inactive) | > 100 µM (inactive) | > 100 µM (inactive) | > 100 µM (inactive) | > 100 µM (inactive) | > 100 µM (inactive) | > 100 µM (inactive) |
| CC(C)c1cc(C(F)(F)F)nc(NNc2nc(C(C)C)cc(C(F)(F)F)n2)n1 | > 100 µM (inactive) | 80 µM (inactive) | 94 µM (inactive) | > 100 µM (inactive) | 62.8 µM (inactive) | 15.9 µM (inactive) | > 100 µM (inactive) | > 100 µM (inactive) | > 100 µM (inactive) | 56.8 µM (inactive) | 53.8 µM (inactive) | > 100 µM (inactive) | 72.6 µM (inactive) | > 100 µM (inactive) | > 100 µM (inactive) | > 100 µM (inactive) | > 100 µM (inactive) | 37.1 µM (inactive) | 33.7 µM (inactive) | 24.2 µM (inactive) |
| CNC(=O)OCc1c2ccncc2c(C)c2c1[nH]c1ccccc12 | 0.723 µM (active) | 0.238 µM (active) | 0.251 µM (active) | 0.0659 µM (active) | 0.167 µM (active) | 0.587 µM (active) | 0.242 µM (active) | 0.125 µM (active) | 0.258 µM (active) | 0.0841 µM (active) | 0.195 µM (active) | 0.261 µM (active) | 0.271 µM (active) | 0.231 µM (active) | 0.275 µM (active) | 0.296 µM (active) | 0.32 µM (active) | 0.292 µM (active) | 0.288 µM (active) | 0.21 µM (active) |
| COc1ccc(-c2[nH]c3c4c(nc5c(c24)C(=O)CC(C)(C)C5)CC(C)(C)C3)cc1 | 24.3 µM (inactive) | > 100 µM (inactive) | 62.4 µM (inactive) | 7.03 µM (inactive) | 72.3 µM (inactive) | 68.5 µM (inactive) | 63.1 µM (inactive) | 52.6 µM (inactive) | 68.7 µM (inactive) | 95.5 µM (inactive) | 76.2 µM (inactive) | 39.7 µM (inactive) | 68.5 µM (inactive) | 61.1 µM (inactive) | 38.9 µM (inactive) | > 100 µM (inactive) | 43.9 µM (inactive) | 57.4 µM (inactive) | > 100 µM (inactive) | 34.4 µM (inactive) |
| CC(C)Oc1c(C2(c3ccccc3O)SCCCS2)c(=O)c1=O | > 100 µM (inactive) | 98.6 µM (inactive) | > 100 µM (inactive) | 57.5 µM (inactive) | > 100 µM (inactive) | > 100 µM (inactive) | > 100 µM (inactive) | > 100 µM (inactive) | 63.5 µM (inactive) | > 100 µM (inactive) | 89.3 µM (inactive) | > 100 µM (inactive) | > 100 µM (inactive) | 47.9 µM (inactive) | > 100 µM (inactive) | 38.7 µM (inactive) | 42.5 µM (inactive) | > 100 µM (inactive) | > 100 µM (inactive) | 36.1 µM (inactive) |
| CCCCN1C(=O)C[C@H]2[C@@H]3CCc4cc(OCCN5CCCC5)ccc4[C@H]3CC[C@]2(C)C1=O | 7.48 µM (inactive) | 3.72 µM (inactive) | 7.8 µM (inactive) | 2.65 µM (inactive) | 5.79 µM (inactive) | 4.38 µM (inactive) | 5.94 µM (inactive) | 15.1 µM (inactive) | 6.53 µM (inactive) | 12.9 µM (inactive) | 11.4 µM (inactive) | 4.67 µM (inactive) | 14.1 µM (inactive) | 4.6 µM (inactive) | 14.2 µM (inactive) | 11.4 µM (inactive) | 13.7 µM (inactive) | 3.9 µM (inactive) | 13.9 µM (inactive) | 3.4 µM (inactive) |
| COC(=O)[C@H]1CO[C@H]2C/C(C)=C/CC/C(C)=C/CC[C@@]3(C)O[C@@H]3C[C@H]21 | 15.3 µM (inactive) | 8.87 µM (inactive) | 16.3 µM (inactive) | 10.4 µM (inactive) | 9.73 µM (inactive) | 18.4 µM (inactive) | 8.2 µM (inactive) | 14.7 µM (inactive) | 12 µM (inactive) | 17.5 µM (inactive) | 17.5 µM (inactive) | 18 µM (inactive) | 9.48 µM (inactive) | 13.4 µM (inactive) | 10.8 µM (inactive) | > 50 µM (inactive) | 7.8 µM (inactive) | 17.9 µM (inactive) | 29.9 µM (inactive) | 14.4 µM (inactive) |
| CN1C(=O)C(=CNc2ccc(Cl)cc2Cl)C(=O)N(C)C1=O | > 100 µM (inactive) | > 100 µM (inactive) | > 100 µM (inactive) | 66.5 µM (inactive) | > 100 µM (inactive) | > 100 µM (inactive) | > 100 µM (inactive) | 17.9 µM (inactive) | > 100 µM (inactive) | > 100 µM (inactive) | > 100 µM (inactive) | > 100 µM (inactive) | > 100 µM (inactive) | > 100 µM (inactive) | > 100 µM (inactive) | > 100 µM (inactive) | > 100 µM (inactive) | > 100 µM (inactive) | > 100 µM (inactive) | > 100 µM (inactive) |
| COC(=O)c1c(C)ccc2c(O)c3c(cc12)C(=O)c1c2c(cc(O)c1C3=O)C1(C)OC(C)(O2)C(O)C(N(C)C)C1O (stereo not given) | 1.66 µM (inactive) | 1.66 µM (inactive) | 1.28 µM (inactive) | 0.543 µM (active) | 0.681 µM (active) | 1.65 µM (inactive) | 8.38 µM (inactive) | 0.83 µM (active) | 2.26 µM (inactive) | 1.23 µM (inactive) | 1.56 µM (inactive) | 2.24 µM (inactive) | 2.12 µM (inactive) | 1.87 µM (inactive) | 2.41 µM (inactive) | 2.96 µM (inactive) | 3.61 µM (inactive) | 1.81 µM (inactive) | 3.33 µM (inactive) | 1.61 µM (inactive) |
| Cn1ccnc1Sc1ccc(/C=N\NC(=O)c2cccc(F)c2)cc1[N+](=O)[O-] | 24 µM (inactive) | 89.1 µM (inactive) | 69.3 µM (inactive) | > 100 µM (inactive) | > 100 µM (inactive) | > 100 µM (inactive) | 56.4 µM (inactive) | 21.7 µM (inactive) | > 100 µM (inactive) | > 100 µM (inactive) | 47.2 µM (inactive) | 30.8 µM (inactive) | 25.3 µM (inactive) | > 100 µM (inactive) | 50.1 µM (inactive) | > 100 µM (inactive) | 40.8 µM (inactive) | 35.9 µM (inactive) | 33.5 µM (inactive) | 27 µM (inactive) |
| Cc1sc2nc(N(C)C)oc(=O)c2c1C | 63.1 µM (inactive) | > 100 µM (inactive) | 85.9 µM (inactive) | 73.8 µM (inactive) | > 100 µM (inactive) | > 100 µM (inactive) | 72.4 µM (inactive) | 73.5 µM (inactive) | > 100 µM (inactive) | 79.8 µM (inactive) | > 100 µM (inactive) | > 100 µM (inactive) | > 100 µM (inactive) | 21.6 µM (inactive) | 86.1 µM (inactive) | > 100 µM (inactive) | 15.8 µM (inactive) | 61.2 µM (inactive) | > 100 µM (inactive) | 34.5 µM (inactive) |
| O=C(O)C(O)C(O)C(O)C(O)CO.[Ba+2] (stereo not given) | > 100 µM (inactive) | > 100 µM (inactive) | > 100 µM (inactive) | > 100 µM (inactive) | > 100 µM (inactive) | > 100 µM (inactive) | > 100 µM (inactive) | > 100 µM (inactive) | > 100 µM (inactive) | > 100 µM (inactive) | > 100 µM (inactive) | > 100 µM (inactive) | > 100 µM (inactive) | > 100 µM (inactive) | > 100 µM (inactive) | > 100 µM (inactive) | > 100 µM (inactive) | > 100 µM (inactive) | > 100 µM (inactive) | > 100 µM (inactive) |
| COc1ccc2c(c1)C(=O)C1CCC(=O)N1C2c1ccc2c(c1)OCO2 (stereo not given) | 4.2 µM (inactive) | 13.6 µM (inactive) | 21 µM (inactive) | 2.74 µM (inactive) | 23.9 µM (inactive) | 16.9 µM (inactive) | 11.4 µM (inactive) | 18.1 µM (inactive) | 15.7 µM (inactive) | 12.1 µM (inactive) | 15.1 µM (inactive) | 13 µM (inactive) | 25.4 µM (inactive) | 10.6 µM (inactive) | 12.1 µM (inactive) | 14.9 µM (inactive) | 4.26 µM (inactive) | 15.9 µM (inactive) | 26.3 µM (inactive) | 14.9 µM (inactive) |
